Format in all cases: cell-based
Assay [1] concerns the target T1, ER (Homo sapiens, UniProt P03372).
T1 construct: endogenous in cells; host or cells: T47d-kb-Luc (T47D stably transfected with a luciferase reporter gene only)
T1 sequence (P03372 1-595): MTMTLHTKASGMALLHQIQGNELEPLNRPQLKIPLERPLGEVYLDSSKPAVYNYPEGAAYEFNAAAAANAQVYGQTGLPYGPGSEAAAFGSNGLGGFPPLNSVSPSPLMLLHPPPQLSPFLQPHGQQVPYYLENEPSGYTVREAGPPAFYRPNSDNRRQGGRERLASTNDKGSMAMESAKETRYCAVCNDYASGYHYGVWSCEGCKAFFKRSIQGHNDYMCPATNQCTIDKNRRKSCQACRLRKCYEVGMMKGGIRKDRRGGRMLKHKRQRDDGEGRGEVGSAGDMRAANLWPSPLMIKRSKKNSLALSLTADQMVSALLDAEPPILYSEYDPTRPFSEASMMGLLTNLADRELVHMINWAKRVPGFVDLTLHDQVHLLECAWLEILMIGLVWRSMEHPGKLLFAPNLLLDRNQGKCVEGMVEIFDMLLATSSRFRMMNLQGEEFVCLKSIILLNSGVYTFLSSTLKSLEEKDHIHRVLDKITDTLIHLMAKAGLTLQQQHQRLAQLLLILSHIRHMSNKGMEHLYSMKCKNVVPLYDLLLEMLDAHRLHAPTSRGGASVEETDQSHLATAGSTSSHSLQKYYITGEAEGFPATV
Nature of the assay: ER antagonism (T47D ERE luciferase), T47d-kb-Luc cells. To be noted: read-out: IC50 (ER antagonistm). The procedure, abridged:
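Five sample concentrations, each in quadruplicate and repeated in at least three experiments, were tested for blocking of estradiol activity. Values were expressed relative to the estradiol control. The cell system was the T47d-kb-Luc stable breast cancer line.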

Assay [2] relates to MCF-7 breast cancer cells. Nature of the assay: MCF-7 proliferation / cell viability assay. Particulars: Homo sapiens, MCF7; MCF-7 proliferation with 0.1 nM 17-beta estradiol; read-out: IC50 (anti-proliferation). Put shortly: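 Survival ratio, with vehicle (DMSO) as 100%, was derived from Coulter-counted viable cell numbers. Cells were grown in 5% FBS DMEM and dosed for 5 days across six concentrations between 10^−10 M and 10^−5 M.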

Assay [3] has as its target T2, ERα (Homo sapiens, UniProt P03372).
T2 construct: endogenous in cells; host or cells: MCF-7
T2 sequence (P03372 1-595): T1 sequence (P03372 1-595)
Nature of the assay: ER degradation in MCF-7 cells (Western blot). To be noted: for DC50: ER degradation, 24 hours; for Dmax: MCF7, Maximal ER degradation, read-out: Dmax. The procedure, abridged: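 ERα levels assessed by Western blot (50 μg lysate protein, infrared scanner) after 24-hour exposure of MCF-7 cells to varied compound concentrations. Values reported as DC50, the concentration halving ER expression, and Dmax, the maximal ER reduction achieved across tested concentrations.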

This note sets out measurements from patent publication US20220348595A1, “COMPOUNDS AND METHODS FOR THE TARGETED DEGRADATION OF ESTROGEN RECEPTORS” (Endotarget Inc., priority 2021, published 2022).

Where only a bound is given, the exact number is not on record here.

As for `CC/C(=C(\c1ccc(OCCN2CCC(C3CCN(c4ccc5c(c4)C(=O)N(C4CCC(=O)NC4=O)C5=O)CC3)CC2)cc1)c1ccc(B(O)O)cc1)c1ccccc1` (stereo not drawn) [Compound 34, (E)-(4-(1-(4-(2-(1′-(2-(2,6-dioxopiperidin-3-yl)-1,3-dioxoisoindolin-5-yl)-[4,4′-bipiperidin]-1-yl)ethoxy)phenyl)-2-phenylbut-1-en-1-yl)phenyl)boronic acid], the IC50 in assay [1] is 10 to 50 nM. Further, the IC50 in assay [2] fell in the range of 10 to 50 nM. In assay [3], the DC50 is less than 10 nM and the Dmax was more than 90%.

`CC/C(=C(/c1ccc(OCCCCCN2CCN(c3ccc4c(c3)CN(C3CCC(=O)NC3=O)C4=O)CC2)cc1)c1ccc(B(O)O)cc1)c1ccccc1` (stereo not drawn) [Compound 35, (Z)-(4-(1-(4-((5-(4-(2-(2,6-dioxopiperidin-3-yl)-1-oxoisoindolin-5-yl)piperazin-1-yl)pentyl)oxy)phenyl)-2-phenylbut-1-en-1-yl)phenyl)boronic acid]: the IC50 in assay [1] lay in the range of 10 to 50 nM. In assay [2], the IC50 was in the range of 10 to 50 nM. For the same compound, in assay [3], the 50% degradation concentration (DC50) was in the range of 10 to 50 nM and the maximal degradation (Dmax) is more than 90%.

For `CC/C(=C(\c1ccc(OCCCCCN2CCN(c3ccc4c(c3)CN(C3CCC(=O)NC3=O)C4=O)CC2)cc1)c1ccc(B(O)O)cc1)c1ccccc1` (stereo not drawn) [Compound 36], the IC50 in assay [1] was in the range of 10 to 50 nM. The IC50 in assay [2] fell in the range of 10 to 50 nM. Further, in assay [3], the half-maximal degradation concentration (DC50) lay in the range of 10 to 50 nM and the maximal degradation (Dmax) is more than 90%.

With `CC/C(=C(/c1ccc(OCCN2CCN(CCCN3CCN(c4ccc5c(c4)C(=O)N(C4CCC(=O)NC4=O)C5=O)CC3)CC2)cc1)c1ccc(B(O)O)cc1)c1ccccc1` (stereo not drawn) [Compound 37, (Z)-(4-(1-(4-(2-(4-(3-(4-(2-(2,6-dioxopiperidin-3-yl)-1,3-dioxoisoindolin-5-yl)piperazin-1-yl)propyl)piperazin-1-yl)ethoxy)phenyl)-2-phenylbut-1-en-1-yl)phenyl)boronic acid], the IC50 in assay [1] was in the range of 10 to 50 nM. In addition, in assay [2], the IC50 lay in the range of 10 to 50 nM. In assay [3], the half-maximal degradation concentration (DC50) is less than 10 nM and the greatest degradation seen (Dmax) is more than 90%.

Turning to `CC/C(=C(\c1ccc(OCCN2CCN(CCCN3CCN(c4ccc5c(c4)C(=O)N(C4CCC(=O)NC4=O)C5=O)CC3)CC2)cc1)c1ccc(B(O)O)cc1)c1ccccc1` (stereo not drawn) [Compound 38, (E)-(4-(1-(4-(2-(4-(3-(4-(2-(2,6-dioxopiperidin-3-yl)-1,3-dioxoisoindolin-5-yl)piperazin-1-yl)propyl)piperazin-1-yl)ethoxy)phenyl)-2-phenylbut-1-en-1-yl)phenyl)boronic acid], the IC50 in assay [1] and in assay [2] was 10 to 50 nM in each case. In addition, the DC50 in assay [3] is less than 10 nM. In addition, in assay [3], the Dmax was more than 90%.

On to `CC/C(=C(\c1ccc(B(O)O)cc1)c1ccc(N2CCC(CNC3CCN(c4ccc5c(c4)C(=O)N(C4CCC(=O)NC4=O)C5=O)CC3)CC2)cc1)c1ccccc1` (stereo not drawn) [Compound 39, (Z)-(4-(1-(4-(4-(((1-(2-(2,6-dioxopiperidin-3-yl)-1,3-dioxoisoindolin-5-yl)piperidin-4-yl)amino)methyl)piperidin-1-yl)phenyl)-2-phenylbut-1-en-1-yl)phenyl)boronic acid], for which the IC50 in assay [1] fell in the range of 10 to 50 nM. In addition, the IC50 in assay [2] lay within 10 to 50 nM. In addition, in assay [3], the DC50 is less than 10 nM and the greatest degradation seen (Dmax) is more than 90%.

Take `CC/C(=C(/c1ccc(B(O)O)cc1)c1ccc(N2CCC(CNC3CCN(c4ccc5c(c4)C(=O)N(C4CCC(=O)NC4=O)C5=O)CC3)CC2)cc1)c1ccccc1` (stereo not drawn) [Compound 40, (E)-(4-(1-(4-(4-(((1-(2-(2,6-dioxopiperidin-3-yl)-1,3-dioxoisoindolin-5-yl)piperidin-4-yl)amino)methyl)piperidin-1-yl)phenyl)-2-phenylbut-1-en-1-yl)phenyl)boronic acid]: the IC50 in assay [1] was 10 to 50 nM. In addition, the IC50 in assay [2] was 10 to 50 nM. For the same compound, in assay [3], the DC50 is less than 10 nM and the maximal degradation (Dmax) is more than 90%.

Take `CC/C(=C(/c1ccc(OCCN2CCN(c3ccc4c(c3)C(=O)N(C3CCC(=O)NC3=O)C4=O)CC2)cc1)c1ccc(B(O)O)cc1)c1ccccc1` (stereo not drawn) [Compound 41, (Z)-(4-(1-(4-(2-(4-(2-(2,6-dioxopiperidin-3-yl)-1,3-dioxoisoindolin-5-yl)piperazin-1-yl)ethoxy)phenyl)-2-phenylbut-1-en-1-yl)phenyl)boronic acid]: the IC50 in assay [1] was 10 to 50 nM. In addition, the IC50 in assay [2] was in the range of 10 to 50 nM. Further, in assay [3], the half-maximal degradation concentration (DC50) lay within 10 to 50 nM and the Dmax is more than 50%.

`CC/C(=C(\c1ccc(OCCN2CCN(c3ccc4c(c3)C(=O)N(C3CCC(=O)NC3=O)C4=O)CC2)cc1)c1ccc(B(O)O)cc1)c1ccccc1` (stereo not drawn) [Compound 42, (E)-(4-(1-(4-(2-(4-(2-(2,6-dioxopiperidin-3-yl)-1,3-dioxoisoindolin-5-yl)piperazin-1 yl)ethoxy)phenyl)-2-phenylbut-1-en-1-yl)phenyl)boronic acid]: the IC50 in assay [1] and in assay [2] was 10 to 50 nM throughout. The same compound gave a DC50 in assay [3] of 10 to 50 nM. The maximal degradation (Dmax) in assay [3] was more than 50%.

As to `CC/C(=C(\c1ccc(B(O)O)cc1)c1ccc(N2CCN(CCCN3CCN(c4ccc5c(c4)C(=O)N(C4CCC(=O)NC4=O)C5=O)CC3)CC2)cc1)c1ccccc1` (stereo not drawn) [Compound 43, (Z)-(4-(1-(4-(4-(3-(4-(2-(2,6-dioxopiperidin-3-yl)-1,3-dioxoisoindolin-5-yl)piperazin-1-yl)propyl)piperazin-1-yl)phenyl)-2-phenylbut-1-en-1-yl)phenyl)boronic acid], the IC50 in assay [1] was in the range of 10 to 50 nM. The IC50 in assay [2] was less than 10 nM. For the same compound, in assay [3], the 50% degradation concentration (DC50) was less than 10 nM and the Dmax was more than 90%.

Take `CC/C(=C(/c1ccc(B(O)O)cc1)c1ccc(N2CCN(CCCN3CCN(c4ccc5c(c4)C(=O)N(C4CCC(=O)NC4=O)C5=O)CC3)CC2)cc1)c1ccccc1` (stereo not drawn) [Compound 44, (E)-(4-(1-(4-(4-(3-(4-(2-(2,6-dioxopiperidin-3-yl)-1,3-dioxoisoindolin-5-yl)piperazin-1-yl)propyl)piperazin-1-yl)phenyl)-2-phenylbut-1-en-1-yl)phenyl)boronic acid]: the IC50 in assay [1] was less than 10 nM. For the same compound, the IC50 in assay [2] lay in the range of 10 to 50 nM. Further, in assay [3], the 50% degradation concentration (DC50) is less than 10 nM and the Dmax is more than 90%.

In the case of `CC/C(=C(\c1ccc(B(O)O)cc1)c1ccc(N2CCN(CCCN3CCN(c4ccc5c(c4)CN(C4CCC(=O)NC4=O)C5=O)CC3)CC2)cc1)c1ccccc1` (stereo not drawn) [Compound 45, (Z)-(4-(1-(4-(4-(3-(4-(2-(2,6-dioxopiperidin-3-yl)-1-oxoisoindolin-5-yl)piperazin-1-yl)propyl)piperazin-1-yl)phenyl)-2-phenylbut-1-en-1-yl)phenyl)boronic acid], in assay [1], the IC50 is less than 10 nM. Also, in assay [2], the IC50 is 10 to 50 nM. Further, in assay [3], the DC50 is less than 10 nM and the Dmax is more than 90%.

As to `CC/C(=C(/c1ccc(B(O)O)cc1)c1ccc(N2CCN(CCCN3CCN(c4ccc5c(c4)CN(C4CCC(=O)NC4=O)C5=O)CC3)CC2)cc1)c1ccccc1` (stereo not drawn) [Compound 46, (E)-(4-(1-(4-(4-(3-(4-(2-(2,6-dioxopiperidin-3-yl)-1-oxoisoindolin-5-yl)piperazin-1-yl)propyl)piperazin-1-yl)phenyl)-2-phenylbut-1-en-1-yl)phenyl)boronic acid], the IC50 is less than 10 nM in assay [1] and 10 to 50 nM in assay [2]. In assay [3], this compound displayed a DC50 of less than 10 nM. The Dmax in assay [3] was more than 90%.

`CC/C(=C(\c1ccc(B(O)O)cc1)c1ccc(C2CCN(CCCN3CCN(c4ccc5c(c4)C(=O)N(C4CCC(=O)NC4=O)C5=O)CC3)CC2)cc1)c1ccccc1` (stereo not drawn) [Compound 47]: in assay [1], the IC50 is 10 to 50 nM. In addition, the IC50 in assay [2] fell in the range of 10 to 50 nM. In assay [3], the DC50 is less than 10 nM and the Dmax is more than 90%.

Consider `CC/C(=C(/c1ccc(B(O)O)cc1)c1ccc(C2CCN(CCCN3CCN(c4ccc5c(c4)C(=O)N(C4CCC(=O)NC4=O)C5=O)CC3)CC2)cc1)c1ccccc1` (stereo not drawn) [Compound 48, (E)-(4-(1-(4-(1-(3-(4-(2-(2,6-dioxopiperidin-3-yl)-1,3-dioxoisoindolin-5-yl)piperazin-1-yl)propyl)piperidin-4-yl)phenyl)-2-phenylbut-1-en-1-yl)phenyl)boronic acid], for which the IC50 in assay [1] is 10 to 50 nM. Also, the IC50 in assay [2] lay in the range of 10 to 50 nM. In addition, in assay [3], the DC50 was less than 10 nM and the Dmax is more than 90%.

In general, DC50 refers to the concentration giving 50% degradation. Higher therefore signals a less potent degrader. By Dmax is commonly meant the largest share of the target that was removed.
